Test results from the NIST ThermoML archive (doi:10.1016/j.jct.2014.09.022).
Numbers after ± are expanded uncertainties.

Experiments:
[1] = mn = molality of the nth substance listed, in mol/kg; settings: 298.15 K, 100 kPa, Liquid; for viscosity: Capillary tube (Ostwald / Ubbelohde) method; for mass density: Vibrating tube method
[2] = refractive index (Na D-line) (dimensionless); mn = molality of the nth substance listed, in mol/kg; settings: 298.15 K, 100 kPa, Liquid, Standard Abbe refractometry
[3] = refractive index (Na D-line) (dimensionless); settings: 298.15 K; 100 kPa; Liquid; Standard Abbe refractometry
[4] = 298.15 K, 100 kPa, Liquid

C(=NCCN=Cc1ccccn1)c1ccccn1 [N,N'-bis(2-pyridinylmethylene)-1,2-ethanediamine] + CC(=O)N(C)C
Settings | mass density, [1] [kg/m3] | refractive index, [2] | viscosity, [1] [mPa·s]
m1 = 0.0471 | 937.73 ± 1 | 1.4291 ± 0.016 | 1.035 ± 0.022
m1 = 0.091 | 939.12 ± 1 | 1.43 ± 0.016 | 1.069 ± 0.023
m1 = 0.1327 | 940.31 ± 1 | 1.4317 ± 0.016 | 1.082 ± 0.023
m1 = 0.1768 | 941.81 ± 1 | 1.433 ± 0.016 | 1.1 ± 0.024

CCCCCCn1cc[n+](C)c1.[Cl-] [1-hexyl-3-methylimidazolium chloride] + CC(=O)N(C)C
Settings | mass density, [1] [kg/m3] | refractive index, [2] | viscosity, [1] [mPa·s]
m1 = 0.0226 | 936.94 ± 1 | 1.4283 ± 0.016 | 1.029 ± 0.022
m1 = 0.0468 | 937.6 ± 1 | 1.429 ± 0.016 | 1.042 ± 0.022
m1 = 0.06 | 937.96 ± 1 | 1.4295 ± 0.016 | 1.057 ± 0.023
m1 = 0.0797 | 938.48 ± 1 | 1.4297 ± 0.016 | 1.072 ± 0.023
m1 = 0.1002 | 939.02 ± 1 | 1.43 ± 0.016 | 1.087 ± 0.023
m1 = 0.1216 | 939.55 ± 1 | 1.4303 ± 0.016 | 1.106 ± 0.024
m1 = 0.141 | 940.04 ± 1 | 1.4307 ± 0.016 | 1.123 ± 0.024
m1 = 0.1621 | 940.56 ± 1 | 1.431 ± 0.016 | 1.129 ± 0.024
m1 = 0.1781 | 940.95 ± 1 | 1.4312 ± 0.016 | 1.137 ± 0.024
m1 = 0.2012 | 941.49 ± 1 | 1.432 ± 0.016 | 1.142 ± 0.024

CC(=O)N(C)C [N,N-dimethylethanamide]
Settings | refractive index
[3] | 1.4278 ± 0.016

[4]
Settings | mass density [kg/m3] | viscosity [mPa·s]
Capillary tube (Ostwald / Ubbelohde) method | – | 0.989 ± 0.021
Vibrating tube method | 936.31 ± 1 | –
